Experimental data: the NIST ThermoML archive (doi:10.1016/j.jct.2007.02.004)
± gives the expanded uncertainty stated by the source.

How the values were obtained:
[1] = refractive index (Na D-line) (dimensionless); details: 293.15 K; 101.33 kPa; Liquid; Standard Abbe refractometry
[2] = 293.15 K; 101.33 kPa; Liquid
[3] = xn = mol fraction of the nth substance listed; details: 101 kPa, Liquid

CC(=O)c1ccccc1 [acetophenone]
Details | mass density [kg/m3] | refractive index
[1] | – | 1.5336 ± 0.0008
[2] | 1027.93 ± 0.6 | –

CC(=O)c1ccccc1 [acetophenone] + CCCCCCO
mass density [kg/m3], [3]
Details | 293.15 K | 303.15 K | 313.15 K | 323.15 K
x1 = 0.0498 | 828.67 ± 0.72 | 821.42 ± 0.74 | 813.97 ± 0.75 | 806.47 ± 0.77
x1 = 0.1009 | 838.84 ± 0.7 | 831.49 ± 0.72 | 823.85 ± 0.73 | 816.28 ± 0.75
x1 = 0.1517 | 848.99 ± 0.68 | 841.56 ± 0.7 | 833.75 ± 0.71 | 826.11 ± 0.73
x1 = 0.2106 | 860.83 ± 0.66 | 853.32 ± 0.68 | 845.32 ± 0.69 | 837.59 ± 0.71
x1 = 0.2474 | 868.27 ± 0.65 | 860.71 ± 0.66 | 852.58 ± 0.68 | 844.8 ± 0.69
x1 = 0.3028 | 879.54 ± 0.62 | 871.9 ± 0.64 | 863.61 ± 0.66 | 855.74 ± 0.67
x1 = 0.3426 | 887.68 ± 0.61 | 879.99 ± 0.62 | 871.57 ± 0.64 | 863.65 ± 0.66
x1 = 0.3978 | 899.04 ± 0.59 | 891.28 ± 0.6 | 882.7 ± 0.62 | 874.71 ± 0.64
x1 = 0.4512 | 910.1 ± 0.57 | 902.26 ± 0.58 | 893.55 ± 0.6 | 885.48 ± 0.62
x1 = 0.4985 | 919.95 ± 0.55 | 912.05 ± 0.57 | 903.23 ± 0.58 | 895.1 ± 0.6
x1 = 0.5526 | 931.29 ± 0.53 | 923.31 ± 0.54 | 914.38 ± 0.56 | 906.19 ± 0.58
x1 = 0.6071 | 942.79 ± 0.5 | 934.73 ± 0.52 | 925.7 ± 0.54 | 917.44 ± 0.55
x1 = 0.6491 | 951.7 ± 0.48 | 943.59 ± 0.5 | 934.49 ± 0.52 | 926.17 ± 0.53
x1 = 0.7101 | 964.72 ± 0.46 | 956.53 ± 0.47 | 947.35 ± 0.49 | 938.95 ± 0.51
x1 = 0.7485 | 972.96 ± 0.44 | 964.73 ± 0.46 | 955.5 ± 0.47 | 947.06 ± 0.49
x1 = 0.8019 | 984.49 ± 0.42 | 976.21 ± 0.43 | 966.9 ± 0.45 | 958.4 ± 0.47
x1 = 0.8521 | 995.4 ± 0.39 | 987.06 ± 0.41 | 977.72 ± 0.43 | 969.16 ± 0.45
x1 = 0.9045 | 1006.85 ± 0.4 | 998.46 ± 0.39 | 989.09 ± 0.41 | 980.48 ± 0.42
x1 = 0.9554 | 1018.05 ± 0.43 | 1009.61 ± 0.41 | 1000.23 ± 0.38 | 991.56 ± 0.4

CC(=O)c1ccccc1 [acetophenone] + CCOC(=O)OCC
mass density [kg/m3], [3]
Details | 293.15 K | 303.15 K | 313.15 K | 323.15 K
x2 = 0.0511 | 1025.44 ± 0.44 | 1016.4 ± 0.42 | 1007.58 ± 0.39 | 998.79 ± 0.38
x2 = 0.1014 | 1023.08 ± 0.43 | 1014.09 ± 0.4 | 1005.19 ± 0.38 | 996.27 ± 0.37
x2 = 0.1501 | 1020.74 ± 0.41 | 1011.77 ± 0.39 | 1002.73 ± 0.36 | 993.68 ± 0.37
x2 = 0.1996 | 1018.43 ± 0.4 | 1009.35 ± 0.37 | 1000.2 ± 0.35 | 991.08 ± 0.36
x2 = 0.2465 | 1016.19 ± 0.38 | 1007.04 ± 0.36 | 997.78 ± 0.34 | 988.56 ± 0.36
x2 = 0.3041 | 1013.28 ± 0.36 | 1004.02 ± 0.34 | 994.63 ± 0.34 | 985.24 ± 0.36
x2 = 0.3467 | 1011.14 ± 0.35 | 1001.78 ± 0.33 | 992.31 ± 0.34 | 982.8 ± 0.36
x2 = 0.4001 | 1008.46 ± 0.34 | 998.99 ± 0.32 | 989.35 ± 0.34 | 979.74 ± 0.36
x2 = 0.4507 | 1005.87 ± 0.32 | 996.27 ± 0.31 | 986.55 ± 0.33 | 976.77 ± 0.35
x2 = 0.4888 | 1003.88 ± 0.31 | 994.18 ± 0.31 | 984.35 ± 0.33 | 974.49 ± 0.35
x2 = 0.5506 | 1000.64 ± 0.29 | 990.73 ± 0.31 | 980.71 ± 0.33 | 970.76 ± 0.35
x2 = 0.6038 | 997.77 ± 0.29 | 987.73 ± 0.31 | 977.48 ± 0.33 | 967.47 ± 0.35
x2 = 0.6498 | 995.25 ± 0.29 | 985.06 ± 0.31 | 974.69 ± 0.33 | 964.54 ± 0.35
x2 = 0.7104 | 991.92 ± 0.29 | 981.54 ± 0.31 | 971.04 ± 0.33 | 960.63 ± 0.35
x2 = 0.7513 | 989.53 ± 0.29 | 979.05 ± 0.31 | 968.47 ± 0.33 | 957.86 ± 0.36
x2 = 0.8078 | 986.29 ± 0.29 | 975.68 ± 0.31 | 964.89 ± 0.33 | 954.13 ± 0.36
x2 = 0.8522 | 983.66 ± 0.29 | 972.91 ± 0.31 | 961.99 ± 0.34 | 951.07 ± 0.36
x2 = 0.8993 | 980.83 ± 0.29 | 969.91 ± 0.31 | 958.99 ± 0.34 | 947.76 ± 0.36
x2 = 0.9488 | 977.82 ± 0.29 | 966.78 ± 0.32 | 955.63 ± 0.34 | 944.32 ± 0.37
